Reference: patent publication US11040035B2, “3-oxo-2,6-diphenyl-2,3-dihydropyridazine-4-carboxamides” (BAYER PHARMA AKTIENGESELLSCHAFT, priority 2016, dated 2021)
“And” between values parts separate entries of the source, which are not always exact repeats. Equal entries are not always repeated. Where two headings read alike, the source gives them in different places.

Key:
[1] = target: T1, AHR (Homo sapiens, UniProt P35869); assay: In vitro assay 2: agonism in human cell line (transactivation assay)
T1 sequence (P35869 11-848): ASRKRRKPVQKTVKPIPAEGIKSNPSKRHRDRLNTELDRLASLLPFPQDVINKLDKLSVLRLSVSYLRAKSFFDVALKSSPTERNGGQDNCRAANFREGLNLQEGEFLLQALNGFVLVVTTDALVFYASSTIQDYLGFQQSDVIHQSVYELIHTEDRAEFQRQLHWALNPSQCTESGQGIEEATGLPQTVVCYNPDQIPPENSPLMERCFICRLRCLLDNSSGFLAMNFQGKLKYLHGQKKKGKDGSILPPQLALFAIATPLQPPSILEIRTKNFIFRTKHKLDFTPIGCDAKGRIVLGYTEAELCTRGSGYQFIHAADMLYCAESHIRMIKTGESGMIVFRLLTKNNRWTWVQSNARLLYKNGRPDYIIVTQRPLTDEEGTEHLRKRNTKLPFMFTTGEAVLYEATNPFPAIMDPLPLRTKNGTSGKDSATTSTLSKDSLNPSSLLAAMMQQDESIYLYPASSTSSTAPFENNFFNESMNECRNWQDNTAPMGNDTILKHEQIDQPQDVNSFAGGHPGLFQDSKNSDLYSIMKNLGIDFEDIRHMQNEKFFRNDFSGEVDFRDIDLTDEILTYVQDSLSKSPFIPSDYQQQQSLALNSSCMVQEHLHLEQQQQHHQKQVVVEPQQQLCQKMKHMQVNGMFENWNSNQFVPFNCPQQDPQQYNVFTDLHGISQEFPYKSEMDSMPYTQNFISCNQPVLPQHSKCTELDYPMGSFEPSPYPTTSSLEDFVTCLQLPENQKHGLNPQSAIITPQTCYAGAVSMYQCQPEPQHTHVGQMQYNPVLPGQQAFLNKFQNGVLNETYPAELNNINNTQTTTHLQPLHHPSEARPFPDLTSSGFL

[2] = system: TNFa production by LPS-stimulated human monocytes; assay: In vitro assay 4: rescue of TNFa production from human primary monocytes; assay type: cell-based; conditions: one value per donor; for Emax: Homo sapiens, Monocyte, 18 h, human monocytes, 10 ng/mL LPS + 200 μM KA, 18 hours, highest percent TNFa rescue relative to highest rescue with GNF-351, read-out: Individual Donors % rescue TNFa normalised to ref cmpd
Description: In Vitro Assay 4: Rescue of TNFa Production from Human Primary Monocytes
The ability of the substances to enhance immune cell activity was determined. The substances were tested for their capacity to reverse KA-induced inhibition of TNFa production by LPS-stimulated human monocytes. Human monocytes were purified by negative selection from donor PBMCs using Miltenyi beads and seeded at 2×10^5 cells/well in complete growth medium (RPMI 1640, 10% FCS). Monocytes were incubated with 10 ng/mL LPS (0127:68, #L4516, Sigma) and 200 μM KA (#3375, Sigma) and substances were added at concentrations of 1 μM, 0.3 μM and 0.1 μM and cultured for 18 hours. LPS alone served as the positive control. TNFa production in the supernatant was measured by Meso Scale Discovery immunassay and the ability of the substances to rescue TNFa production was calculated as a percentage of LPS stimulation and KA-induced inhibition and normalized to the donor-specific response with the reference AHR antagonist compound GNF-351 (Smith et al., J Pharmacol Exp Ther, 2011, 338(1):318-27).

[3] = target: T1, AHR; assay: In vitro assay 1: antagonism in human cell line (transactivation assay, kynurenic acid prestimulated); conditions: Assay 1: AHR-luc Hum Antagonism IC50 [M], 150 μM kynurenic acid, 20 hours, firefly luciferase
[4] = system: AHR-regulated gene CYP1A1; assay: In vitro assay 3: AHR-regulated CYP1A1 expression in human cell line (U937, qPCR)
[5] = system: CT26 tumor cells; assay: In vivo assay: efficacy of example compound and PD-1-L1 axis antagonist in CT26 tumor model; conditions: female Balb/c mice, CT26 s.c.; example 23 30 mg/kg BID p.o.; aPD-L1 (TPP-3911) 10 mg/kg q3d i.p.; treatment from day 5
Description: In Vivo Assay: Efficacy of Compositions Comprising an Example Compound and a PD-1-L1 Axis Antagonist
Animals were ordered from Charles River Sulzfeld, Germany and assigned to the study at the age of 8 weeks. Animal husbandry, feeding and health conditions are according to animal welfare guidelines. CT26 cells (aquired from ATCC) were cultivated with RPMI 1640 with 10% FCS and splitted at least 3 times before inoculation. Female Balb/c mice were inoculated with 500.000 CT26 tumor cells in 50% medium/50% matrigel subcutaneously in the flank. After 4 days the animals were randomized and therapeutic treatment started on day 5.
The anti-PDL1 antibody is a chimera of the variable domain of atezolizumab with murine IgG1 CH1, 2 and 3 domains.
Tumor size was measured using calipers determining length (a) and width (b). Tumor volume was calculated according to:
Significance of monotherapies and combination treatment was calculated versus control group as determined by 2-Way ANOVA analysis.
After 4 days the animals were randomized and therapeutic treatment started on day 5. […] Significance of monotherapies and combination treatment was calculated vs. control group as determined by 2-Way ANOVA analysis.

[6] = target: T1, AHR; conditions: 20 h
[7] = read-out: Assay 2: AHR-luc Hum Agonism IC50, no kynurenic acid, 20 hours, firefly luciferase
[8] = Homo sapiens, U-937, 6 h, read-out: Assay 3: Hum CYP1A1 Antagonism IC50 [M], U937 cells, 200 μM KA, 6 hours, qPCR
[9] = Assay 2: AHR-luc Hum Agonism IC50 [M], no kynurenic acid, 20 hours, firefly luciferase
[10] = read-out: Assay 3: Hum CYP1A1 Antagonism IC50, U937 cells, 200 μM KA, 6 hours, qPCR

| IC50 [1, 7] [M] | IC50 [3] [M] | IC50 [4, 8] [M] | IC50 [1, 9] [M] | IC50 [4, 10] [M] | Compound | Emax [2] [%] | T/C, ratio of tumor size under treatment versus tumor size in the control group [5] | Individual Donors Conc of highest rescue ([2]; concentration (of 1, 0.3, 0.1 μM tested) at which highest TNFa rescue was observed) | IC50 [6] [nM] |
| --- | --- | --- | --- | --- | --- | --- | --- | --- | --- |
| > 2e-05 | 6.07e-09 | 2.89e-09 | – | – | CC(C)(O)C(NC(=O)c1cc(-c2ccc(Cl)cc2)nn(-c2cccc(F)c2)c1=O)C(F)(F)F (single isomer, unassigned) [Example 279] | 53 | – | – | – |
| – | 3.99e-08 | 7.07e-08 | > 2e-05 | – | C[C@@H](CO)NC(=O)c1cc(-c2ccc(Cl)cc2)nn(-c2cccc(F)c2)c1=O [Example 23, 6-(4-Chlorophenyl)-2-(3-fluorophenyl)-N-[(2S)-1-hydroxypropan-2-yl]-3-oxo-2,3-dihydropyridazine-4-carboxamide] | – | 0.75 | – | – |
| – | 4.52e-07 | 6e-07 | > 2e-05 | – | O=C(NCC1(O)CCCCC1)c1cc(-c2ccc(Cl)cc2)nn(-c2cccc(F)c2)c1=O [Example 129, 6-(4-Chlorophenyl)-2-(3-fluorophenyl)-N-[(1-hydroxycyclohexyl)methyl]-3-oxo-2,3-dihydropyridazine-4-carboxamide] | 30 | – | – | – |
| – | 3.97e-08 | 8.05e-08 | > 2e-05 | – | CC[C@@H](CO)NC(=O)c1cc(-c2ccc(Cl)c(F)c2)nn(-c2cccc(F)c2)c1=O [Example 288, 6-(4-Chloro-3-fluorophenyl)-2-(3-fluorophenyl)-N-[(2S)-1-hydroxybutan-2-yl]-3-oxo-2,3-dihydropyridazine-4-carboxamide] | 82 | – | – | – |
| – | – | – | – | – | Cc1cncc(-c2nc(NCCc3c[nH]c4ccccc34)c3ncn(C(C)C)c3n2)c1 [GNF-351, reference compound] | – | – | 0.3 µM and 0.1 µM | – |
| > 2e-05 | 1.04e-08 | 3.77e-09 | – | – | O=C(NC(CO)C(F)(F)F)c1cc(-c2ccc(Cl)cc2)nn(-c2cccc(F)c2)c1=O (single isomer, unassigned; (+)) [Example 99, (+)-6-(4-Chlorophenyl)-2-(3-fluorophenyl)-3-oxo-N-(1,1,1-trifluoro-3-hydroxypropan-2-yl)-2,3-dihydropyridazine-4-carboxamide] | 101 | – | – | – |
| – | 1.19e-07 | 1.07e-07 | > 2e-05 | – | C[C@@H](CO)NC(=O)c1cc(-c2ccc(Cl)c(Cl)c2)nn(-c2cccc(F)c2)c1=O [Example 300, 6-(3,4-Dichlorophenyl)-2-(3-fluorophenyl)-N-[(2S)-1-hydroxypropan-2-yl]-3-oxo-2,3-dihydropyridazine-4-carboxamide] | 122 | – | – | – |
| – | 8.53e-08 | 2e-06 | > 2e-05 | – | COC(=O)[C@@H](CO)NC(=O)c1cc(-c2ccc(Cl)cc2)nn(-c2cccc(F)c2)c1=O [Example 315, methyl N-{[6-(4-chlorophenyl)-2-(3-fluorophenyl)-3-oxo-2,3-dihydropyridazin-4-yl]carbonyl}-D-serinate] | – | – | – | – |
| – | 2.73e-08 | 8.1e-08 | > 2e-05 | – | CC(C)[C@@H](CO)NC(=O)c1cc(-c2ccc(Cl)c(Cl)c2)nn(-c2cccc(F)c2)c1=O [Example 301, 6-(3,4-Dichlorophenyl)-2-(3-fluorophenyl)-N-[(2S)-1-hydroxy-3-methylbutan-2-yl]-3-oxo-2,3-dihydropyridazine-4-carboxamide] | 112 | – | – | – |
| – | 8.84e-08 | 1.07e-07 | > 2e-05 | – | O=C(NCCCO)c1cc(-c2ccc(C(F)(F)F)cc2)nn(-c2cccc(F)c2)c1=O [Example 249, 2-(3-Fluorophenyl)-N-(3-hydroxypropyl)-3-oxo-6-[4-(trifluoromethyl)phenyl]-2,3-dihydropyridazine-4-carboxamide] | – | – | – | – |
| > 2e-05 | 5.8e-08 | – | – | 1.51e-07 | CC(C)C(O)CNC(=O)c1cc(-c2ccc(Cl)cc2)nn(-c2cc(F)cc(F)c2)c1=O (single isomer, unassigned) [Example 50, 6-(4-Chlorophenyl)-2-(3,5-difluorophenyl)-N-(2-hydroxy-3-methylbutyl)-3-oxo-2,3-dihydropyridazine-4-carboxamide] | – | – | – | – |
| – | 4.72e-08 | 5.77e-08 | > 2e-05 | – | C[C@@H](O)[C@@H](C)NC(=O)c1cc(-c2ccc(Cl)cc2)nn(-c2cccc(F)c2)c1=O [Example 231, 6-(4-Chlorophenyl)-2-(3-fluorophenyl)-N-[(2R,3R)-3-hydroxybutan-2-yl]-3-oxo-2,3-dihydropyridazine-4-carboxamide] | – | – | – | – |
| – | 2.91e-08 | – | > 2e-05 | 3.76e-08 | O=C(NC(CO)C1CCOC1)c1cc(-c2ccc(OC(F)(F)F)cc2)nn(-c2cccc(F)c2)c1=O (single isomer, unassigned) [Example 175, 2-(3-Fluorophenyl)-N-[2-hydroxy-1-(tetrahydrofuran-3-yl)ethyl]-3-oxo-6-[4-(trifluoromethoxy)phenyl]-2,3-dihydropyridazine-4-carboxamide] | – | – | – | – |
| > 2e-05 | 1.71e-07 | – | – | 1.02e-07 | O=C(NC(CO)C1CCOC1)c1cc(-c2ccc(OC(F)(F)F)cc2)nn(-c2cccc(F)c2)c1=O (single isomer, unassigned) [Example 176, 2-(3-Fluorophenyl)-N-[2-hydroxy-1-(tetrahydrofuran-3-yl)ethyl]-3-oxo-6-[4-(trifluoromethoxy)phenyl]-2,3-dihydropyridazine-4-carboxamide] | – | – | – | – |
| – | 3.42e-08 | – | > 2e-05 | 4.92e-08 | CC(C)C(O)CNC(=O)c1cc(-c2ccc(Cl)cc2)nn(-c2cc(F)cc(F)c2)c1=O (single isomer, unassigned) [Example 49, 6-(4-Chlorophenyl)-2-(3,5-difluorophenyl)-N-(2-hydroxy-3-methylbutyl)-3-oxo-2,3-dihydropyridazine-4-carboxamide] | – | – | – | – |

| Compound | IC50 [1, 7] [M] | IC50 [3] [M] | IC50 [4, 8] [M] | IC50 [1, 9] [M] | IC50 [4, 10] [M] | Emax [2] [%] | T/C, ratio of tumor size under treatment versus tumor size in the control group [5] | Individual Donors Conc of highest rescue ([2]; concentration (of 1, 0.3, 0.1 μM tested) at which highest TNFa rescue was observed) | IC50 [6] [nM] |
| --- | --- | --- | --- | --- | --- | --- | --- | --- | --- |
| Cc1ccc(-c2cc(C(=O)NCC(O)C(F)(F)F)c(=O)n(-c3cc(F)cc(F)c3)n2)cc1 (single isomer, unassigned) [Example 54, 2-(3,5-Difluorophenyl)-6-(4-methylphenyl)-3-oxo-N-(3,3,3-trifluoro-2-hydroxypropyl)-2,3-dihydropyridazine-4-carboxamide] | – | 4.07e-08 | – | – | – | – | – | – | > 20000 |
